Key:
[1] = test system: Onchocerca gutturosa adult male worms; assay: Onchocerca gutturosa in vitro screening model: adult worm motility score and MTT/formazan viability; assay type: cell-based; conditions: read-out: O. gutt Activity class
Dirofilaria immitis = assay: Heartworm screen Dirofilaria immitis (stage DiMF/DiL4 not specified in the tables); assay type: cell-based; conditions: read-out: D. immitis Activity class

Nc1ncccc1S(=O)(=O)Nc1cccc2cccnc12 [Compound 151, 2-amino-N-(quinolin-8-yl)pyridine-3-sulfonamide]
IC50 [1]: 0.5 to 5 µM
IC50 (Dirofilaria immitis): 0.5 to 5 µM

O=S(=O)(Nc1cccc2cccnc12)c1ccnc(C2CC2)c1 [Compound 152]
IC50 [1]: < 0.2 µM
IC50 (Dirofilaria immitis): 0.5 to 5 µM

O=S(=O)(Nc1cccc2cccnc12)c1ccc(C(F)F)nc1 [Compound 153, 6-(difluoromethyl)-N-(quinolin-8-yl)pyridine-3-sulfonamide]
IC50 [1]: 0.5 to 5 µM
IC50 (Dirofilaria immitis): 0.5 to 5 µM

Cc1cc(S(=O)(=O)Nc2cccc3cccnc23)ccn1 [Compound 154, 2-methyl-N-(quinolin-8-yl)pyridine-4-sulfonamide]
IC50 [1]: 0.2 to 0.5 µM
IC50 (Dirofilaria immitis): 0.5 to 5 µM

Cc1ncccc1S(=O)(=O)Nc1cccc2cccnc12 [Compound 155, 2-methyl-N-(quinolin-8-yl)pyridine-3-sulfonamide]
IC50 [1]: 0.5 to 5 µM
IC50 (Dirofilaria immitis): 0.5 to 5 µM

O=S(=O)(Nc1cccc2cccnc12)c1cccc(C(F)(F)F)n1 [Compound 156, N-(quinolin-8-yl)-6-(trifluoromethyl) pyridine-2-sulfonamide]
IC50 [1]: < 0.2 µM
IC50 (Dirofilaria immitis): 0.5 to 5 µM

Cc1ccc(S(=O)(=O)Nc2cccc3cccnc23)cn1 [Compound 157, 6-methyl-N-(quinolin-8-yl)pyridine-3-sulfonamide]
IC50 [1]: 0.5 to 5 µM
IC50 (Dirofilaria immitis): 0.5 to 5 µM

O=S(=O)(Nc1cccc2cccnc12)c1ccnc(C(F)(F)F)c1 [Compound 158, N-(quinolin-8-yl)-2-(trifluoromethyl) pyridine-4-sulfonamide]
IC50 [1]: 0.2 to 0.5 µM
IC50 (Dirofilaria immitis): 0.5 to 5 µM

CC(C)(C)c1ccc(S(=O)(=O)Nc2cccc3cccnc23)cn1 [Compound 159, 6-tert-butyl-N-(quinolin-8-yl)pyridine-3-sulfonamide]
IC50 [1]: < 0.2 µM
IC50 (Dirofilaria immitis): 0.2 to 0.5 µM

O=S(=O)(Nc1cccc2cccnc12)c1cc(F)ccn1 [Compound 160, 4-fluoro-N-(quinolin-8-yl)pyridine-2-sulfonamide]
IC50 [1]: < 0.2 µM
IC50 (Dirofilaria immitis): 0.5 to 5 µM

Cc1cc(C#N)cc(S(=O)(=O)Nc2cccc3cccnc23)n1 [Compound 167, 4-cyano-6-methyl-N-(quinolin-8-yl)pyridine-2-sulfonamide]
IC50 [1]: 0.2 to 0.5 µM
IC50 (Dirofilaria immitis): 0.5 to 5 µM

O=S(=O)(Nc1cccc2cccnc12)c1nccn1C1(C(F)(F)F)CC1 [Compound 168, N-(quinolin-8-yl)-1-(1-(trifluoromethyl)cyclopropyl)-1H-imidazole-2-sulfonamide]
IC50 [1]: < 0.2 µM
IC50 (Dirofilaria immitis): 0.2 to 0.5 µM

N#Cc1nc(Cl)ccc1S(=O)(=O)Nc1cccc2cccnc12 [Compound 169, 6-chloro-2-cyano-N-(quinolin-8-yl)pyridine-3-sulfonamide]
IC50 [1]: 0.5 to 5 µM
IC50 (Dirofilaria immitis): 0.5 to 5 µM

O=S(=O)(Nc1cccc2cccnc12)c1nccn1C1CC1C(F)(F)F (centres unmarked) [Compound 171, N-(quinolin-8-yl)-1-(2-(trifluoromethyl)cyclopropyl)-1H-imidazole-2-sulfonamide]
IC50 [1]: < 0.2 µM
IC50 (Dirofilaria immitis): 0.2 to 0.5 µM

O=S(=O)(Nc1cccc2cccnc12)c1nccn1C1CC1(F)F (centres unmarked) [Compound 174, 1-(2,2-difluorocyclo-propyl)-N-(quinolin-8-yl)-1H-imidazole-2-sulfonamide]
IC50 [1]: < 0.2 µM
IC50 (Dirofilaria immitis): 0.2 to 0.5 µM

O=S(=O)(Nc1cccc2cccnc12)c1ccc(Cl)nc1C(F)(F)F [Compound 176, 6-chloro-N-(quinolin-8-yl)-2-(trifluoromethyl) pyridine-3-sulfonamide]
IC50 [1]: 0.2 to 0.5 µM
IC50 (Dirofilaria immitis): 0.5 to 5 µM

Cc1cc(C)c(S(=O)(=O)Nc2cccc3cccnc23)c(Cl)n1 [Compound 177, 2-chloro-4,6-dimethyl-N-(quinolin-8-yl)pyridine-3-sulfonamide]
IC50 [1]: 0.5 to 5 µM
IC50 (Dirofilaria immitis): 0.5 to 5 µM

N#Cc1ccc(-c2cccc(S(=O)(=O)Nc3cccc4cccnc34)n2)cc1 [Compound 178, 6-(4-cyanophenyl)-N-(quinolin-8-yl)pyridine-2-sulfonamide]
IC50 [1]: < 0.2 µM
IC50 (Dirofilaria immitis): 0.5 to 5 µM

Cc1nc(Cl)ccc1S(=O)(=O)Nc1cccc2cccnc12 [Compound 179, 6-chloro-2-methyl-N-(quinolin-8-yl)pyridine-3-sulfonamide]
IC50 [1]: < 0.2 µM
IC50 (Dirofilaria immitis): 0.5 to 5 µM

Cc1ncc(S(=O)(=O)Nc2cccc3cccnc23)cc1Cl [Compound 180, 5-chloro-6-methyl-N-(quinolin-8-yl)pyridine-3-sulfonamide]
IC50 [1]: 0.5 to 5 µM
IC50 (Dirofilaria immitis): 0.5 to 5 µM

Cc1ncc(Cl)cc1S(=O)(=O)Nc1cccc2cccnc12 [Compound 181, 5-chloro-2-methyl-N-(quinolin-8-yl)pyridine-3-sulfonamide]
IC50 [1]: 0.5 to 5 µM
IC50 (Dirofilaria immitis): 0.2 to 0.5 µM

O=S(=O)(Nc1cccc2cccnc12)c1ccc(-c2ccc(F)cc2)nc1 [Compound 182, 6-(4-fluorophenyl)-N-(quinolin-8-yl)pyridine-3-sulfonamide]
IC50 [1]: < 0.2 µM
IC50 (Dirofilaria immitis): 0.5 to 5 µM

Cc1nc(S(=O)(=O)Nc2cccc3cccnc23)ccc1Cl [Compound 184, 5-chloro-6-methyl-N-(quinolin-8-yl)pyridine-2-sulfonamide]
IC50 [1]: < 0.2 µM
IC50 (Dirofilaria immitis): 0.2 to 0.5 µM

C[C@@H](C1CC1)n1ccnc1S(=O)(=O)Nc1cccc2cccnc12 [Compound 185, (S)-1-(1-cyclopropyl-ethyl)-N-(quinolin-8-yl)-1H-imidazole-2-sulfonamide]
IC50 [1]: < 0.2 µM
IC50 (Dirofilaria immitis): 0.2 to 0.5 µM

Cc1cc(S(=O)(=O)Nc2cccc3cccnc23)cc(C)n1 [Compound 186, 2,6-dimethyl-N-(quinolin-8-yl)pyridine-4-sulfonamide]
IC50 [1]: 0.2 to 0.5 µM
IC50 (Dirofilaria immitis): 0.5 to 5 µM

Cc1ccc(S(=O)(=O)Nc2cccc3cccnc23)c(C)n1 [Compound 187, 2,6-dimethyl-N-(quinolin-8-yl)pyridine-3-sulfonamide]
IC50 [1]: 0.5 to 5 µM
IC50 (Dirofilaria immitis): 0.5 to 5 µM

Cc1ccc(S(=O)(=O)Nc2cccc3cccnc23)c(Cl)n1 [Compound 188, 2-chloro-6-methyl-N-(quinolin-8-yl)pyridine-3-sulfonamide]
IC50 [1]: < 0.2 µM
IC50 (Dirofilaria immitis): 0.5 to 5 µM

O=S(=O)(Nc1cccc2cccnc12)c1ccc(-c2ccccc2)nc1 [Compound 189, 6-phenyl-N-(quinolin-8-yl)pyridine-3-sulfonamide]
IC50 [1]: 0.2 to 0.5 µM
IC50 (Dirofilaria immitis): 0.5 to 5 µM

O=S(=O)(Nc1cccc2cccnc12)c1ccc(C(F)(F)F)nc1 [Compound 190, N-(quinolin-8-yl)-6-(trifluoromethyl) pyridine-3-sulfonamide]
IC50 [1]: < 0.2 µM
IC50 (Dirofilaria immitis): < 0.2 µM

CCn1cc(C)nc1S(=O)(=O)Nc1cccc2cccnc12 [Compound 191, 1-ethyl-4-methyl-N-(quinolin-8-yl)-1H-imidazole-2-sulfonamide]
IC50 [1]: < 0.2 µM
IC50 (Dirofilaria immitis): 0.2 to 0.5 µM

CCn1ccc(S(=O)(=O)Nc2cccc3cccnc23)n1 [Compound 193, 1-ethyl-N-(quinolin-8-yl)-1H-pyrazole-3-sulfonamide]
IC50 [1]: 0.2 to 0.5 µM
IC50 (Dirofilaria immitis): 0.5 to 5 µM

Cc1ccc(S(=O)(=O)Nc2cccc3nccnc23)nc1 [Compound 196, 5-methyl-N-(quinoxalin-5-yl)pyridine-2-sulfonamide]
IC50 [1]: 0.2 to 0.5 µM
IC50 (Dirofilaria immitis): 0.2 to 0.5 µM

COc1nccc(S(=O)(=O)Nc2cccc3cccnc23)n1 [Compound 197, 2-methoxy-N-(quinolin-8-yl)pyrimidine-4-sulfonamide]
IC50 [1]: 0.2 to 0.5 µM
IC50 (Dirofilaria immitis): 0.5 to 5 µM

CC(C)n1nccc1S(=O)(=O)Nc1cccc2cccnc12 [Compound 206, 1-isopropyl-N-(quinolin-8-yl)-1H-pyrazole-5-sulfonamide]
IC50 [1]: 0.2 to 0.5 µM
IC50 (Dirofilaria immitis): 0.5 to 5 µM
